Molecular target: T1, human PYCR1 (Homo sapiens, UniProt P32322)
T1 sequence (P32322 1-300): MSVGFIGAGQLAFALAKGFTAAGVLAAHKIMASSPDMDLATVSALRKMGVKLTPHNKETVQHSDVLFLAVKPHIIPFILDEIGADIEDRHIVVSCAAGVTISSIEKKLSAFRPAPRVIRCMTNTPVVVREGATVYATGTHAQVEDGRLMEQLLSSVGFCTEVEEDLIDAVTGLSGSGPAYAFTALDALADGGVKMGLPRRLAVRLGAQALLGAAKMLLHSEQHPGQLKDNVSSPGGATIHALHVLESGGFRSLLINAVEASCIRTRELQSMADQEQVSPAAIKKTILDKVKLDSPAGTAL
Experiment: In crystallo screening: electron density as readout for binding (crystal soaking)
Design: includes residues 1–300 of the full-length 319-residue enzyme; inferred from the Ni-NTA purification; made in house; host or cells: Escherichia coli BL21 (DE3)
Conditions: apo crystals soaked with 25–500 mM of the proline analog
Description: Over two dozen proline analogs (Fig. 2) were screened using electron density from X-ray crystallography as the readout for binding to human PYCR1. […] Because the compounds bind in the P5C/proline site, the mechanism of inhibition was assumed to be competitive with P5C. Therefore, steady-state kinetic measurements were performed with L-P5C as the variable substrate (0-1000 μM) and NADH fixed (175 μM) (Fig. 3). For each compound, the data were fit globally to a competitive inhibition model (Equation 1) to obtain an inhibition constant, Ki.
06594), D,L-thiazolidine-2-carboxylate (Sigma-Aldrich no. 467995), L-thiazolidine-4-carboxylate (Sigma-Aldrich no. T27502), 1,3-thiazolidine-2,4-dicarboxylate (Sigma-Aldrich no. CDS000186), dimethyl 1,3-thiazolidine-2,4-dicarboxylate (Sigma-Aldrich no. […] 287067), L-4-hydroxyproline methyl ester (hydrochloride) (Sigma-Aldrich no. 30681), cis-4-hydroxy-D-proline methyl ester (hydrochloride) (Sigma-Aldrich no. […] 441562), L-(+)-mandelic acid (Sigma-Aldrich no. 63460), sodium-L-lactate (Sigma-Aldrich no. 71718), D-cycloserine (Sigma-Aldrich no. C6880). The proline analogs were added to apo crystals during cryoprotection by soaking the crystals in the reservoir solution supplemented with cryoprotectant (PEG 200 for the PEG 3350 form; glycerol for the NaCl form) and then in the same cryobuffer supplemented with 25–500 mM of the proline analog. Following equilibration, the crystals were harvested and rapidly plunged into liquid nitrogen.
The complex of PYCR1 with THFA was obtained by soaking a C2 crystal (NaCl form) for 15 min in a cryo-buffer consisting of the reservoir solution (3 M NaCl and 0.1 M HEPES at pH 7.5–8.0) supplemented with 30% glycerol and 50 mM THFA, followed by flash-cooling in liquid nitrogen. Crystals of the NFLP complex were prepared by soaking P2_12_12 crystals in the reservoir solution (250 mM Li2SO4, 19% (w/v) PEG 3350, 0.1 M HEPES, pH 7.5) supplemented with 20% (v/v) PEG 200 and 100 mM NFLP. The complexes with L-T2C and L-T4C were prepared similarly, except the Li2SO4 concentration was reduced to 25 mM and 50 mM of either L-T4C or D,L-T2C was included.

In the case of `O=CN1CCC[C@H]1C(=O)O` [NFLP, N-formyl L-proline], the “electron density evidence for binding (in words)” value was “Electron density evidence for binding was observed”.

Source: paper PMC7939384, “In crystallo screening for proline analog inhibitors of the proline cycle enzyme PYCR1” (The Journal of Biological Chemistry, 2021)
